Results published in patent US8980877B2, “Spirocyclic derivatives as histone deacetylase inhibitors” (DAC S.R.L., priority 2008, dated 2015).

What was measured:
[1] = tested on: HDAC (nuclear fraction of Hela cells); experiment: Assay of enzyme inhibition of HDAC (BIOMOL Kit); format: biochemical; details: substrate 200 μM, 15 min at RT, fluorescence
Description: The in-vitro activity of HDAC inhibitors was assayed using a BIOMOL Kit, according to the instructions from the manufacturer (Biomolecular Research Laborator). 15 μl of 30× diluted nuclear fraction of Hela cells, was diluted to 50 μl with the assay buffer containing the HDAC inhibitor and the substrate (lysine with acetylated amino group on the side chain) at a concentration of 200 μM. The samples were incubated for 15 min at RT and then exposed to a developer (10 min at RT). In this last step a fluorophore was produced, whose fluorescence was measured using an excitation wavelength of 355 nm and an emission at 460 nm. The IC50 was calculated using GraphPad Software.

A549 cells = experiment: Cell growth, CellTiter-Glo Luminescent Cell Viability Assay, A549; format: cell-based; details: Homo sapiens, 72 h incubation, read-out: A549 (antiproliferative assay IC50)
From the text: (§1) CellTiter-Glo® Luminescent Cell Viability Assay (Promega) is a homogeneous method of determining the number of viable cells in culture based on quantitation of the present ATP, which indicates the presence of metabolically active cells. The homogeneous assay procedure involves addition of a single reagent (CellTiter-Glo® Reagent) directly to the cells, which leads to cell lysis and generation of a luminescent signal proportional to the amount of the ATP and the number of cells present in culture. The assay relies on the properties of a proprietary thermostable luciferase (Ultra-Glo® recombinant luciferase), which generates a luminescent signal.
(§2) K562, A549, and HCT-116 cells, in exponential growth, were incubated for 72 h with different concentrations of the inhibitors. After 72 h, a volume of CellTiter-Glo® Reagent equal to the volume of cell culture medium was added. The content was mixed for 2 min to induce cell lysis. The luminescence was recorded after further 10 min at RT in order to obtain a stable luminescent signal.
(§3) The IC50 was calculated using GraphPad Software.

HCT-116 cells = experiment: Cell growth, CellTiter-Glo Luminescent Cell Viability Assay, HCT-116; format: cell-based; details: Homo sapiens, 72 h incubation, read-out: HCT116 (antiproliferative assay IC50)
From the text: as §1, §2, §3

K562 cells = experiment: Cell growth, CellTiter-Glo Luminescent Cell Viability Assay, K562; format: cell-based; details: Homo sapiens, 72 h incubation, read-out: K562 (antiproliferative assay IC50)
From the text: as §1, §2, §3

O=C(/C=C/c1ccc2c(c1)C(=O)CC1(CCN(Cc3ccccc3)C1)O2)NO (racemic) [Example 2, (±)-(E)-3-[1′-Benzyl-4-oxo-spiro(chromane-2,3′-pyrrolidine)-6-yl]-N-hydroxy-acrylamide]
IC50 [1]: ≤ 100 nM

CO/N=C1/CC2(CCCN(Cc3ccc(F)cc3)C2)Oc2ccc(/C=C/C(=O)NO)cc21 (centres unmarked) [Example 53, (E)-3-(1′-(4-Fluorobenzyl)-4-(methoxyimino)spiro[chroman-2,3′-piperidine]-6-yl)-N-hydroxyacrylamide]
IC50 (A549 cells): ≥ 3000 nM
IC50 [1]: ≥ 1000 nM
IC50 (HCT-116 cells): 1000 to 3000 nM
IC50 (K562 cells): 1000 to 3000 nM

O=C(/C=C/c1ccc2c(c1)C(=O)CC1(CCCN(Cc3ccc(F)cc3)C1)O2)NO (racemic) [Example 19, (±)-(E)-3-[1′(4-Fluoro-benzyl)-4-oxo-spiro(chromane-2,3′-piperidine)-6-yl]-N-hydroxy-acrylamide]
IC50 [1]: ≤ 100 nM

O=C(/C=C/c1ccc2c(c1)C(=O)CC1(CCCN(CCc3ccccc3)CC1)O2)NO (racemic) [Example 28, (±)-(E)-3-[1′(2-Phenyl-ethyl)-4-oxo-spiro(chromane-2,4′-azepane)-6-yl]-N-hydroxy-acrylamide]
IC50 [1]: ≤ 100 nM

O=C(/C=C/c1ccc2c(c1)C(=O)CC1(CN(Cc3ccccc3)C1)O2)NO [Example 31, (E)-3-[1′-Benzyl-4-oxo-spiro(chromane-2,3′-azetidine)-6-yl]-N-hydroxy-acrylamide]
IC50 [1]: ≤ 100 nM

O=C(/C=C/c1ccc2c(c1)C(=NO)CC1(CCCN(C3CCCC3)C1)O2)NO (centres unmarked) [Example 54, (E)-3-(1′-Cyclopentyl-4-(hydroxyimino)spiro[chroman-2,3′-piperidine]-6-yl)-N-hydroxyacrylamide]
IC50 [1]: ≤ 100 nM

O=C(/C=C/c1ccc2c(c1)/C(=N\OCc1ccccc1)CC1(CCCN(CCc3ccccc3)C1)O2)NO (centres unmarked) [Example 55, (E)-3-(4-(Benzyloxyimino)-1′-phenethylspiro[chroman-2,3′-piperidine]-6-yl)-N-hydroxyacrylamide]
IC50 (A549 cells): 1000 to 3000 nM
IC50 [1]: ≥ 1000 nM
IC50 (HCT-116 cells): ≤ 1000 nM
IC50 (K562 cells): ≤ 1000 nM

O=C(/C=C/c1ccc2c(c1)C(=O)CC1(CCCN(Cc3ccccc3)C1)O2)NO (racemic) [Example 13, (±)-(E)-3-[1′Benzyl-4-oxo-spiro(chromane-2,3′-piperidine)-6-yl]-N-hydroxy-acrylamide]
IC50 [1]: ≤ 100 nM

O=C(/C=C/c1ccc2c(c1)C(=O)NC1(CCCN(Cc3ccccc3)C1)O2)NO (racemic) [Example 40, (±)-(E)-3-{1′-Benzyl-3,4-dihydro-4-oxo-spiro[2H-(1,3)-benzoxazine-2,3′-piperidin]-6-yl}-N-hydroxy-acrylamide]
IC50 [1]: ≤ 100 nM

O=C(/C=C/c1ccc2c(c1)C(=O)CC1(CCCN(CCc3ccccc3)C1)O2)NO (racemic) [Example 20, (±)-(E)-3-[1′-(2-Phenyl-ethyl)-4-oxo-spiro(chromane-2,3′-piperidine)-6-yl]-N-hydroxy-acrylamide]
IC50 [1]: ≤ 100 nM

O=C(/C=C/c1ccc2c(c1)C(=O)CC1(CCCN(C3CCCC3)C1)O2)NO (racemic) [Example 50, (±)-(E)-3-[1′-Cyclopentyl-4-oxo-spiro(chromane-2,3′-piperidine)-6-yl]-N-hydroxy-acrylamide]
IC50 [1]: ≤ 100 nM

O=C(/C=C/c1ccc2c(c1)C(=O)CC1(CCCN(Cc3ccccc3)C1)O2)NO (single isomer, unassigned; (+)) [Example 18, (+)-(E)-3-[1′-Benzyl-4-oxo-spiro(chromane-2,3′-piperidine)-6-yl]-N-hydroxy-acrylamide]
IC50 [1]: 100 to 1000 nM

O=C(/C=C/c1ccc2c(c1)C(=O)CC1(CCCN(Cc3ccccc3)CC1)O2)NO (racemic) [Example 23, (±)-(E)-3-[1′-Benzyl-4-oxo-spiro(chromane-2,4′-azepane)-6-yl]-N-hydroxy-acrylamide]
IC50 [1]: ≤ 100 nM

O=C(/C=C/c1ccc2c(c1)C(=O)NC1(CCCN(CCc3ccccc3)C1)O2)NO (racemic) [Example 43, (±)-(E)-3-{1′-(2-Phenyl-ethyl)-3,4-dihydro-4-oxo-spiro[2H-(1,3)-benzoxazine-2,3′-piperidin]-6-yl}-N-hydroxy-acrylamide]
IC50 [1]: ≤ 100 nM

Cn1cc(CN2CC3(CC(=O)c4cc(/C=C/C(=O)NO)ccc4O3)C2)c2ccccc21 [Example 44, (E)-3-[1′-(1-Methyl-1H-indol-3-ylmethyl)-4-oxo-spiro(chromane-2,3′-azetidine)-6-yl]-N-hydroxy-acrylamide]
IC50 [1]: ≤ 100 nM

O=C(/C=C/c1ccc2c(c1)C(=O)CC1(CCCN(Cc3ccccc3)C1)O2)NO (single isomer, unassigned; (-)) [Example 17, (−)-(E)-3-[1′-Benzyl-4-oxo-spiro(chromane-2,3′-piperidine)-6-yl]-N-hydroxy-acrylamide]
IC50 [1]: ≤ 100 nM

O=C(/C=C/c1ccc2c(c1)C(=O)CC1(CCN(CCc3ccccc3)C1)O2)NO (racemic) [Example 9, (±)-(E)-3-[1′-(2-Phenyl-ethyl)-4-oxo-spiro(chromane-2,3′-pyrrolidine)-6-yl]-N-hydroxy-acrylamide]
IC50 [1]: ≤ 100 nM

O=C(/C=C/c1ccc2c(c1)C(=O)CC1(CN(C(=O)c3ccccc3)C1)O2)NO [Example 37, (E)-3-[1′-Benzoyl-4-oxo-spiro(chromane-2,3′-azetidine)-6-yl]-N-hydroxy-acrylamide]
IC50 [1]: ≤ 100 nM

Cn1cc(CN2CCC3(CC(=O)c4cc(/C=C/C(=O)NO)ccc4O3)C2)c2ccccc21 (racemic) [Example 10, (±)-(E)-3-[1′(1-Methyl-1H-indol-3-ylmethyl)-4-oxo-spiro(chromane-2,3′-pyrrolidine)-6-yl]-N-hydroxy-acrylamide]
IC50 [1]: ≤ 100 nM

O=C(/C=C/c1ccc2c(c1)C(=O)CC1(CCN(Cc3ccccc3)C1)O2)NO (single isomer, unassigned; (-)) [Example 3, (−)-(E)-3-[1′-Benzyl-4-oxo-spiro(chromane-2,3′-pyrrolidine)-6-yl]-N-hydroxy-acrylamide]
IC50 [1]: ≤ 100 nM
